Measurements as given in patent publication US20100112030A1, “ROLE OF HEDGEHOG SIGNALING IN ATHEROSCLEROSIS AND CARDIOVASCULAR DISEASE” (The Regents of the University of California, priority 2007, published 2010).

Key:
Format in all cases: cell-based
[1] = system: pluripotent mesenchymal cells derived from the bone marrow; experiment: Oxysterol-induced osteoblastic differentiation of pluripotent mesenchymal cells; conditions: hedgehog pathway inhibitor added to oxysterol-treated cells
Text: These mesenchymal cells, which serve as osteoprogenitors during skeletal development and bone remodeling, are induced to undergo osteoblastic differentiation when treated with osteoinductive oxysterols.

[2] = system: Gli1 expression in mouse aortic smooth muscle cells (MASMC); experiment: Hh target gene (Gli1) expression in MASMC; conditions: 48 hours of treatment
Protocol: (§1) Treatment of HASMC with Shh was examined to determine if Shh induces the expression of target genes, Ptch and Gli. […] This difference may be cell-type specific or may be due to heterogeneity in vascular smooth muscle cell populations and their differentiation state. Ptch and Gli1 mRNA expression was induced when using 3 μg/ml of rmShh after 48 hours of treatment (1.6 fold and 1.8 fold, respectively, compared to control vehicle-treated cells as assessed by Q-RT-PCR analysis). This is consistent with studies in which 3.5 μg/ml of Shh was used to activate rat vascular SMC. It is likely that local Shh concentrations may reach very high levels in the microenvironment of the vessel wall, since, as described herein, substantial immunostaining for Shh in atherosclerotic lesions was observed. Cells within the atherosclerotic lesion may also become more susceptible to Shh over time due to the inflammatory insults associated with that environment. […] Dose response and time course experiments can determine the extent and kinetics of Hh target gene expression in aortic SMC, as well as in other vascular cells, using techniques known to a person of ordinary skill.

[3] = system: Ptch and Gli1 expression in human aortic smooth muscle cells (HASMC); experiment: Hh target gene (Ptch, Gli1) mRNA expression in HASMC by Q-RT-PCR; conditions: 48 hours of treatment
Protocol: as §1

CC1=C2C[C@H]3[C@@H](CC=C4C[C@@H](O)CC[C@@]43C)[C@@H]2CC[C@]12O[C@@H]1C[C@H](C)CN[C@H]1[C@H]2C [cyclopamine]
oxysterol-induced osteoblastic differentiation of cells [1]: completely inhibited

CC(C)CCC[C@](C)(O)[C@H]1CC[C@H]2[C@@H]3CC=C4C[C@@H](O)CC[C@]4(C)[C@H]3CC[C@@]21C [20(S)-hydroxycholesterol]
increase in Gli1 expression [2]: 2 fold
increase in Gli1 expression [3]: 2 fold
